Laboratory results from EP2265599B1, “CRYSTAL FORM OF PHENYLAMINOPYRIMIDINE DERIVATIVE” (Natco Pharma Limited, priority 2008, dated 2009).
“Also recorded” adds a separate entry of the source.

Columns and labels:
[1] = tested on: K562 luciferase expressing cells; assay: Leukemic survival study, K562 luciferase expressing cells implanted intraperitoneally; assay type: in vivo, nude mice
Text: K562 luciferase expressing cells were implanted intraperitoneally into nude mice; the mice were scanned using the xenogeny IVIS image station after ip injections of luciferin does determine implantations. Drug treatment was started as in previous studies day 15 after implantation. The animals were given treatment till day 42, after which drug treatment was stopped and survival of the animals determined as per the animal care regulations. […] Drug treatment was withdrawn on day 42 post implantation and survival of animals determined.

K562 cells [2] = assay: Spleenic enlargement and Crk immunocytochemistry of spleen in nude mice implanted with K562 cells; assay type: in vivo; details: ip injections
Procedure: Spleen and any secondary tumors were harvested, fixed in formaldehyde and paraffin embedded as per standard protocols. Paraffin section were obtained and processed for immunocytochemistry. The rehydrated sections were treated with 0.3% H2O2 to inactivate any native peroxidases prior to immuno-probing. The sections were blocked with filter sterilized (0.22µm) 1% BSA-PBS at room temperature for 1h. Following blocking, the sections were immuno-probed with a human specific anti-Crk monoclonal primary antibody raised in rabbit against a synthetic peptide corresponding to residues in the SH2 domain, near the N-term of human CrkL protein (Abcam, Cambridge, MA, USA) in 1%BSA-PBS overnight. Secondary antibody (anti-rabbit) conjugated to HRP was used to detect the presence of primary antibody. The sections were briefly rinsed three times in PBS solution after immuno-probing with secondary antibody, and DAB HRP substrate was added per manufacture's instructions (Sigma St Louis MO USA). […] For negative controls primary antibody were eliminated. Leukemic mice spleen served as positive controls.
Mice were sacrificed after a decrease in LGI was observed and spleen harvested. […] Control mice also developed random subcutaneous tumors showing Crk expression, indicative of the presence of K562 cells.

4910 = assay: Matrigel invasion assay (modified Boyden chamber), 4910; assay type: cell-based, human; details: cells treated 48 h
Procedure: (§1) The in vitro invasiveness of 4910, 5310 and U87 glioma cells and MDAMB231 and ZR71 breast cancer cells in the presence of specified concentrations of compounds were assessed using a modified Boyden chamber assay. Cells were treated with these compounds for 48 h. 1x10^6 cells were suspended in 600µl of serum-free medium supplemented with 0.2% BSA and placed in the upper compartment of the transwell chambers (Coming Costar Fischer Scientific Cat #07-200-158, Pittsburgh PA) coated with Matrigel (0.7 mg/ml). The lower compartment of the chamber was filled with 200 µl of serum medium and the cells were allowed to migrate for 24 h. After incubation, the cells were fixed and stained with Hema-3 and quantified as previously described (Mohanam et al. 1993). The migrated cells were imaged microscopically to determine the reduction in invasiveness induced by the compounds of this invention.
(§2) The in vitro invasiveness of 4910, 5310 and U87 glioma cells and MDAMB231 and ZR71 breast cancer cells in the presence of specified concentrations of compounds were assessed using a modified Boyden chamber assay. Cells were treated with these compounds for 48 h.

Baf3T315I = assay: In vivo anti-leukemic activity, blast cell count in blood smears, Baf3T315I implanted nude mice; details: Imatinib 10mg/kg, AN019 20mg/kg, AN024 20mg/kg, oral gavage or ip from day 15; up to day 42
Text: (§3) Blood smears were obtained via the tail vein or via the femoral vein every 6th day and blast cells counted and graphically represented.
(§4) Abdominal swelling and decrease in activity was monitored daily, blood smear taken via the tail vein or the femoral vein every 6th day and H&E stained as per standard protocols. 42 days after implantation, mice were sacrificed and spleens harvested.
(§5) Nude mice were intraperitoneally implanted with Baf3 mutant cells (wt, T315I, M351T or E255K). […] Blood was drawn from the femoral vein or tail vein every 6th day and blast cell count determined and graphically represented.

K562 cells [3] = assay: Anti-CML activity in nude mice implanted with K562 cells (leukemia growth index, LGI)
Procedure: To determine anti-CML activity of compounds of this invention K562 cells were obtained from ATCC and nude mice were implanted with these cells. […] Drug treatment was initiated 15 days post implantation and for 48 days with daily ip injections of 10mg/kg. Blood was drawn from the tail vein every 6th day, percent K562 cells determined and percent leukemia growth index (LGI) calculated.
Nude mice (nu/nu) were implanted with K562 cells (1x10^6) via tail vein. Four mice were used per group and divided into 4 groups. Three groups were implanted with K562 cells and one group was used as normal controls. Group 2 was inoculated with K562 cells and served as untreated positive controls.
Mice were injected via an intraperitoneal route at the above-mentioned dosage. Average weight of nude mice was determined to be 30±3g, and the dosage per mouse was calculated to be 300±30µg/mouse. Three micro liters of the stock solutions was diluted to 100µl with sterile water just prior to ip injections. Ip injections were carried out daily from day 15 post implantation to day 48 with a total of 33 injections.
Leukemia growth index was determined using the formula LGI (%) = (Vc-Vt)/Vc x 100%. Vc is mean blast cell number (K562) per ml of blood in control animals at a certain time of measurement, and Vt is mean blast cell number per ml of blood in test animals at a certain time of measurement. […]

ZR-71 cells = assay: In vitro angiogenic assay (conditioned media on human dermal endothelial cells), ZR-71; assay type: cell-based
Procedure: (§6) The in vitro angiogenesis of 4910, 5310 and U87 glioma cells and MDAMB231 and ZR71 breast cancer cells in the presence of specified concentrations of compounds were determined as follows, cells (2x10^4/well) were seeded in 8-well chamber slides and were treated with various concentrations of test compounds. After a 24 h incubation period, the conditioned media was removed and added to a 4x 10^4 human dermal endothelial cell (monolayer in 8-well chamber slides) and the human dermal endothelial cells were allowed to grow for 72 h. Cells were then fixed in 3.7% formaldehyde and stained with H&E and photographed.

U87 = assay: Matrigel invasion assay (modified Boyden chamber), U87; assay type: cell-based; details: cells treated 48 h
Procedure: as §1, §2

MDA-MB-231 = assay: Matrigel invasion assay (modified Boyden chamber), MDA-MB-231; assay type: cell-based; details: cells treated 48 h
Procedure: as §1, §2

MDA-MB-231 cells = assay: In vitro angiogenic assay (conditioned media on human dermal endothelial cells), MDA-MB-231; assay type: cell-based; details: control condition and after radiation
Procedure: as §6

5310 cells = assay: Western blot analysis for AKT, ERK and Pi3k, 5310; assay type: cell-based
Procedure: (§7) Western blot analysis of 4910, 5310 and U87 glioma cells and MDAMB231 and ZR71 breast cancer cells in the presence of specified concentrations of compounds were assessed as per standard protocols. Cells were treated with AN019, AN024 or Temozolomide at the specified concentrations. 24h after treatment, cells were collected and cell lysates extracted. Equal quantities of proteins were fractionated by SDS-PAGE. The fractionated proteins were blotted on to nylon membranes and immunoprobed for AKT, ERK and Pi3k. Breast cancer cell protein isolates were additionally immunoprobed for EGFR, ErbB1, ErbB2 and ErbB3.

[4] = tested on: 4910 human glioma xenograft cells; assay: Glioma radiation study, intracranially implanted 4910 cells; assay type: in vivo, Nude mice
Procedure: Nude mice were intracranially implanted with 4910 human glioma xenograft cells (1x10^6 cells). Ten days after implantation mice were treated with AN019, AN024 or temozolomide with or without radiation (5Gy/week). The experiment was terminated at day 40 post implantation.

Baf3Wt = assay: In vivo anti-leukemic activity, blast cell count in blood smears, Baf3Wt implanted nude mice; details: Imatinib 10mg/kg, AN019 20mg/kg, AN024 20mg/kg, oral gavage or ip from day 15; up to day 42
Text: as §3, §4, §5

Baf3M351T = assay: In vivo anti-leukemic activity, blast cell count in blood smears, Baf3M351T implanted nude mice; details: Imatinib 10mg/kg, AN019 20mg/kg, AN024 20mg/kg, oral gavage or ip from day 15; up to day 42
Text: as §3, §4, §5

[5] = tested on: Glioma xenograft cells 4910; assay: In vitro angiogenic assay (conditioned media on human dermal endothelial cells), 4910; assay type: cell-based; details: 4910 cells, with and without radiation
Procedure: as §6

ZR71 = assay: Western blot analysis for AKT, ERK and Pi3k, ZR71; assay type: cell-based
Procedure: as §7

Cc1ccc(NC(=O)c2cc(C(F)(F)F)cc(C(F)(F)F)c2)cc1Nc1nccc(-c2cccnc2)n1 [AN019, (3,5-bis trifluoromethyl)-N-[4-methyl-3-(4-pyridin-3yl-pyrimidin-2ylamino)-phenyl]-benzamide]
curative effect after withdrawal of drug treatment (animals cured at day 58) ([1]; drug treatment stopped at day 42, based on luminescence (Fig. 20)): continued to show curative effect | Blast cell count from blood smears after withdrawal of drug treatment ([1]; drug treatment withdrawn on day 42 (Fig. 21)): showed effectiveness after withdrawal of drug treatment | mortality ([1]; treatment from day 15 till day 42, then withdrawn, AN024 death determined to be other than leukemia): did not show any mortality | animals showing no signs of leukemia / complete absence of leukemic symptoms ([1]; treatment from day 15 till day 42, then withdrawn, AN024 on day 55): 7 of the 10 animals | Crk expression in spleen (immunohistochemistry) (K562 cells [2]; paraffin sections of spleen): basal levels of Crk expression; also recorded: only basal level expression of Crk expression comparable to negative control | Spleenic enlargement (gross observation) (K562 cells [2]; spleen harvested after decrease in LGI): did not show any spleenic enlargement | +Radiation % Invasion (4910; 4910, with radiation): 15% | -Radiation % Invasion (4910; 4910, without radiation): 42% | blast cell count in blood smears (Baf3T315I): significant decrease in blast cell count | physiological, phenotypic or behavioral abnormality (K562 cells [3]; K562 implanted nude mice, ip 10mg/kg): no abnormal physiological, phenotypic or behavioral abnormality | LGI after initiation of drug treatment (time course) (K562 cells [3]; daily ip injections of 10mg/kg from day 15, blood drawn every 6th day): steady decline in LGI | inhibition of angiogenesis (ZR-71 cells): complete inhibition of angiogenesis | +Radiation % Invasion (U87; U87, with radiation): 18% | -Radiation % Invasion (U87; U87, without radiation): 18% | +Radiation % Invasion (MDA-MB-231; MDA-MB-231, with radiation): 15% | -Radiation % Invasion (MDA-MB-231; MDA-MB-231, without radiation): 45% | inhibition of angiogenesis (MDA-MB-231 cells): a slight inhibition was observed in both control and radiation treatments | AKT expression levels (5310 cells): decrease in AKT expression levels | Levels of PI3k (5310 cells; without and after radiation): almost undetectable in AN019 treated cells without radiation but reappeared after radiation treatment | intracranial tumours (size, appearance) ([4]; with radiation (5Gy/week)): tumor size was significantly reduced | animals cured / no observable intracranial tumor ([4]; with radiation (5Gy/week), terminated at day 40): 6 of 10 animals | intracranial tumours (size, appearance) ([4]; without radiation): showed tumours similar to AN024 treated animals | animals cured / complete absence of intracranial tumours ([4]; without radiation, treatment from ten days after implantation, terminated at day 40): 6 of 10 animals | blast cell count in blood smears (Baf3Wt): complete regression of leukemic blast cells | blast cell count in blood smears (Baf3M351T): significant decrease in blast cell count | inhibition of angiogenesis [5]: inhibition of angiogenesis similar to MDA-MB-231 cells with an increase in angiogenic inhibition after radiation | PI3k levels (ZR71; ZR71 (cell line by context), with and without radiation): absent in AN019 treatments both with and without radiation | AKT levels (ZR71; ZR71, unirradiated and after radiation): decrease in AKT levels, which was enhanced after radiation
